Assays:
Stability in rat plasma = assay type: in vitro ADME; conditions: for Half life in rat plasma: heparinized plasma, diluted as needed with BSA/D-PBS, 250-323 μg/ml
Description: (§1) Rat, rabbit, and human plasma
(§2) Heparinized plasma: 30 to 40 parts
(rat plasma was diluted, as needed, with 30 mg-BSA/ml-D-PBS (pH 7.4) for use)

swine liver esterase [1] = experiment: Decomposition of glutathione derivatives by swine liver esterase (physiological stability); assay type: in vitro ADME; conditions: BSA/D-PBS pH 7.4, 196-244 μg/ml
Description: (§3) (1) Bovine serum albumin (hereinafter referred to as BSA), Dulbecco's phosphate buffered saline (hereinafter referred to as D-PBS), swine liver esterase, and rabbit liver esterase were purchased from Sigma, 6-week old male SD rats were purchased from Nippon SLC, and 12-week old or older male Japanese white rabbits were purchased from Ichikawaya. On the day of the incubation experiment described below, blood was drawn from the animals in the presence of heparin, and plasma was separated therefrom for use. Human plasma was obtained from normal healthy males after obtaining their consent.
(§4) (2) The glutathione derivatives described in the Examples and Comparative Examples of the present invention were incubated for a fixed time in an enzyme solution having the following composition. Acetonitrile was added to the reaction mixture to inactivate the enzyme thereby to stop the reaction. The concentration of the glutathione derivatives in the deproteinized supernatant was measured by HPLC. For each time point of the esterase enzyme experiment, the mean values from two measurement or more were determined, and for the rats and rabbits the mean values of plasma samples from three individuals were determined. For some of the experiment data, changes with time of percentages relative to initial concentration of the glutathione derivative are shown in FIGS. 2 to 4.
Swine liver esterase and rabbit liver esterase experiment
30 mg-BSA/ml-D-PBS (pH 7.4): 36 to 45 parts
Swine or rabbit liver esterase/D-PBS: 4-5 parts
10 mg-glutathione derivative/ml-ethanol: one part (the final concentration in the reaction mixture is 196-244 μg/ml)

[2] = system: human leukemia cell HL-60; experiment: HL-60 cell differentiation induction, NBT reducing activity (Example 20); assay type: cell-based; conditions: 4 days
Description: Using the differentiation induction effect on the granulocytes or monocytes/macrophages obtained by culturing the human leukemia cell HL-60 in the presence of 9-cys-retinoic acid (9-cis-RA) or activated vitamin D3 (1α, 25(OH)2D3), and in the coexistence of the glutathione derivatives of Examples and the Comparative Examples of the present invention, the growth-promotion activity was tested.
(1) HL-60 cells used were purchased from the cell bank (Japanese Cancer Research Resource Bank, Cell No. JCRBOO85). In accordance with a standard method, the lyophilized cell stocks that were thawed before the start of the experiment and subcultured were used.
Subculturing was carried out by centrifuging (1500 rpm, 5 minutes) the cells in suspension culture and recovering and by diluting it in a fresh culture liquid at a concentration of about 1/100 (1 to 2×10^4 cells/ml). As the culture liquid, an RPMI 1640 medium containing 10% fetal bovine serum was used.
(2) The cells subcultured in (1) were recovered by centrifugation (1500 rpm, 5 minutes), and were dispersed in the culture liquid at 2×10^4 cells/ml, which were plated on a 24-well culture plate at 1 ml/well. To this system were added the glutathione derivatives of Example 4, Example 11, Comparative Example 1 and Comparative Example 2 and a differentiation induction substance (9-cis-RA or 1α, 25(OH)2D3). Thus, 1 μl per well each of an ethanol solution of the differentiation induction substances 9-cis-RA and 1α, 25(OH)2D3 were added at 5×10^−6 M and 2×10^−6 M, respectively. Then, 1 μl per well each of ethanol solutions of the glutathione derivatives at 1×10^−4 M to 1×10^−2 M was added. As the solvent treatment for the control, 1 μl of ethanol per well was added in stead of the glutathione derivative, and as the single treatment of glutathione derivatives, 1 μl of ethanol per well was added in stead of the differentiation induction substance. After culturing at 37° C. and 5% CO2 for 4 days, the cells were recovered by centrifugation (1500 rpm, 5 minutes).
(3) The measurement of a nitroblue tetrazolium (NBT) reducing activity which is often used for the evaluation of differentiation induction effects on monocytes/macrophages or granulocytic cells was carried out according to the following procedure. Thus, the cells recovered by centrifugation in (2) were suspended in a fresh culture medium, and then NBT was added thereto to […] and 12-O-tetradecanoyl phorbol-13-acetate to 100 nM. After incubating at 37° C. for 25 minutes, cytospin samples were prepared. After air drying, the cells were subjected to Kernechtrot stain, and 500 cells per sample were examined under alight microscope to determine the ratio of the NBT reduction activity-positive cells.
(4) The result of the experiment in which glutathione derivatives at 10^−7 to 10^−5 M were treated together with a differentiation induction substances is shown in Table 4. For a single treatment of each glutathione derivative up to 10^−5 M, no increases in the NBT reducing activity was observed. In a combined treatment of a glutathione derivative and a differentiation induction substance, an enhanced ratio of the NBT reduction activity-positive cells relative to the single treatment with a differentiation induction substance was observed depending on the concentration of the glutathione derivative. There were no major differences observed in the strength of effects between the glutathione derivatives of Examples 4 and 11 and Comparative Examples 1, and 2.

swine liver esterase [3] = experiment: Decomposition by swine liver esterase with and without fat emulsion (Example 22); assay type: in vitro ADME; conditions: for Decomposition rate constant in the absence of the fat emulsion: alcohol solution with physiological saline; for Decomposition rate constant in the presence of the fat emulsion: fat emulsion added at 15 (v/v)%
Description: The glutathione derivative combined with a fat emulsion was incubated with swine liver esterase to compare the resistance to decomposition.
Thereupon, the concentration of the glutathione derivatives of Comparative Examples 1 and 2 in the fat emulsion were each adjusted to 1 mg/ml.
After incubation for a fixed time in a similar manner to that in Example 19, the content of the glutathione derivative was quantitated by HPLC. As the control experiment, an alcohol solution of the glutathione derivative of Example 4, Comparative Example 1 or 2 was added to the esterase reaction mixture together with physiological saline for adjustment of the total volume, and incubated similarly and analyzed by HPLC.
(3) Since a linear disappearance curve was observed as in Example 19, each decomposition rate constant was determined and was compared, which was summarized in Table 6.

[4] = Stability in rabbit plasma; conditions: rabbit, plasma
Description: as §3, §4, §1, §2
10 mg-glutathione derivative/ml-ethanol: one part (the final concentration in the reaction mixture is 250-323 μg/ml)

[5] = Stability in human plasma; assay type: in vitro ADME; conditions: heparinized plasma, 250-323 μg/ml
Text: as §1, §2

[6] = compound 10^−5 M, Solvent control (EtOH), no differentiation induction substance
[7] = compound 10^−5 M, with 1α,25(OH)2D3 (2 × 10^−9 M)
[8] = compound 10^−5 M, with 9-cis-RA (5 × 10^−9 M)
[9] = compound 10^−6 M, Solvent control (EtOH), no differentiation induction substance
[10] = compound 10^−6 M, with 1α,25(OH)2D3 (2 × 10^−9 M)
[11] = compound 10^−6 M, with 9-cis-RA (5 × 10^−9 M)
[12] = compound 10^−7 M, Solvent control (EtOH), no differentiation induction substance
[13] = compound 10^−7 M, with 1α,25(OH)2D3 (2 × 10^−9 M)
[14] = compound 10^−7 M, with 9-cis-RA (5 × 10^−9 M)

Stability in biological sample solutions such as rat blood (Stability in rat plasma) | Half life in rat plasma (Stability in rat plasma) | Half life in the plasma of experimental animals (Stability in rat plasma; mice and rats) | Decomposition rate constant by swine liver esterase (swine liver esterase [1]) | Ratio of decomposition rate constant (in the presence of the fat emulsion/physiological saline) (swine liver esterase [3]) | Decomposition rate constant in the absence of the fat emulsion (swine liver esterase [3]) | Decomposition rate constant in the presence of the fat emulsion (swine liver esterase [3]) | Half life in rabbit plasma [4] | Half life in human plasma [5] | Compound | Ratio of NBT reduction activity-positive cells [2, 6] | Ratio of NBT reduction activity-positive cells [2, 7] | Ratio of NBT reduction activity-positive cells [2, 8] | Ratio of NBT reduction activity-positive cells [2, 9] | Ratio of NBT reduction activity-positive cells [2, 10] | Ratio of NBT reduction activity-positive cells [2, 11] | Ratio of NBT reduction activity-positive cells [2, 12] | Ratio of NBT reduction activity-positive cells [2, 13] | Ratio of NBT reduction activity-positive cells [2, 14]
very unstable | 0.13 min | extremely short half life | 121 10^−4/unit/min | 0.609 | 1.206 × 10^−2 /unit/min | 7.343 × 10^−3 /unit/min | 392 min | 643 min | CCOC(=O)[C@@H](N)CCC(=O)N[C@@H](CSCc1ccccc1)C(=O)N[C@@H](C(=O)OCC)c1ccccc1.Cl [Comparative Example 1, Glu(Cys(Bzl)-D-Phg-O(Et))-O(Et)hydrochloride, reference compound] | 0.4% | 13.0% | 18.8% | 0.2% | 7.6% | 10.1% | 0.2% | 5.4% | 6.3%
 | 0.21 min |  | 364 10^−4/unit/min | 0.454 | 3.638 × 10^−2 /unit/min | 1.650 × 10^−2 /unit/min | 238 min | 619 min | CCCCCCCCOC(=O)[C@H](NC(=O)[C@H](CSCc1ccccc1)NC(=O)CC[C@H](N)C(=O)OCC)c1ccccc1.Cl [Comparative Example 2, Glu(Cys(Bzl)-D-Phg-O(Octyl))-O(Et)hydrochloride, reference compound] | 0.6% | 18.2% | 33.2% | 0.4% | 9.3% | 15.2% | 0.2% | 4.6% | 7.4%
 | 154 min |  | 0.466 10^−4/unit/min | 0.185 | 1.100 × 10^−4 /unit/min | 2.033 × 10^−5 /unit/min | 1323 min | 11086 min | CCCCCCCCCCCCCCCCOC(=O)[C@@H](N)CCC(=O)N[C@@H](CSCc1ccccc1)C(=O)N[C@@H](C(=O)OCC)c1ccccc1.Cl [Example 4, Glu(Cys(Bzl)-D-Phg-OEt)-O(Hexadecyl)hydrochloride] | 0.2% | 31.3% | 18.0% | 0.2% | 10.3% | 10.4% | 0.2% | 5.7% | 6.7%

— patent US6627732B1, “Glutathione derivatives and their dosage forms” (Teijin Limited, priority 1998, dated 2003)
